This is an account of results in US8257931B2 (President and Fellows of Harvard College, priority 2005, dated 2012).

One experiment relates to A549 lung cancer cells. Kind of experiment: A549 proliferation, sulforhodamine B (SRB) assay. The format is cell-based, human. Conditions: sulforhodamine B assay, triplicate. How it is done:
FIG. 28 is a graph showing the results of a cell proliferation assay. A549 cells, which are human lung cancer cells, are grown in plates for five days in medium containing 5% FCS and compound. The number of cells is quantified by staining with sulforhodamine B.

The next experiment concerns the target T1, eIF4E/eIF4G interaction (Mus musculus, UniProt P63073).
T1 construct: made in house; host or cells: E. coli
As to the kind of experiment: Fluorescence polarization assay: binding of fluorescein-labeled eIF4G peptide to eIF4E. Set-up: species or system murine. Conditions: triplicate, SD<±10%; for IC50: read-out: IC50 (μM) (4E/4G FP). How it is done:
We adapted this assay to a microwell plate format and used it to screen the 16,000 compound Chembridge DiverSet E library. […] For screening and subsequent peptide binding assays measurements of fluorescence polarization were made using an LJL Analyst plate reader. For the screening assay a solution containing approximately 5 μM meIF4E, 60 nM labeled peptide, 0.05% bovine γ-globulin, and 2 mM DTT in a buffer composed of 50 mM sodium phosphate and 50 mM potassium chloride at pH 6.5 was used. […] The curve fitting for estimation of binding constants used equations derived by Roehrl et al.^22 Measurements of fluorescence polarization and anisotropy were made in black 384-well plates (Corning) using an Analyst plate reader (LJL Biosystems) Compounds were transferred to plates during the screening using a custom-built Seiko pin transfer robot at the Institute for Chemistry and Cell Biology (ICCB) at Harvard Medical School.
A fluorescence polarization (FP) assay was developed to measure binding of a peptide containing the conserved eIF4E-binding motif to eIF4E.
The assay was adapted to a microwell plate format and used to screen a number of libraries comprised of small molecule libraries for potential eIF4E/eIF4G interaction inhibitors.
On the technique in general: Polarisation of emitted light reports the rotation of a fluorescent probe.

Where [1] appears, read: Homo sapiens, A549, Table 1 of b280.
[2] abbreviates: Homo sapiens, A549, Table 1 of b347.

Where “and” joins values, the source holds several entries; their conditions need not be identical. Identical values can stand only once. Like-named read-outs stand apart in the source and are kept apart here. A value given as a limit tells only on which side of the number the result lay.

T1 sequence (P63073 whole entry): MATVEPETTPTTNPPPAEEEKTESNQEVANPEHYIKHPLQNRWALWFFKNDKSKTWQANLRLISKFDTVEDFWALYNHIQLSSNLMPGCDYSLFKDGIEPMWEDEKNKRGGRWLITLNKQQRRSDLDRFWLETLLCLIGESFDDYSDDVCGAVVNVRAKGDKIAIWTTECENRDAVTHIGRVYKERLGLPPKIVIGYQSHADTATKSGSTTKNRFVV

Consider `O=C(O)/C(Cc1ccccc1[N+](=O)[O-])=N/Nc1nc(-c2ccc(-c3ccccc3)cc2)cs1`, for which halving of growth with A549 lung cancer cells (setting [1]) (GI50) required 4 µM.
As for `O=C(O)/C(Cc1ccccc1[N+](=O)[O-])=N/Nc1nc(-c2ccc3ccccc3c2)cs1`, the IC50 on eIF4E/eIF4G interaction (Table 1 of b280) came out at 215 µM. For the same compound, the GI50 (as a rule, the concentration giving 50% growth inhibition) in the experiment with A549 lung cancer cells (setting [1]) came to 6 µM.
As for `O=C(O)/C(Cc1ccccc1[N+](=O)[O-])=N/Nc1nc(-c2ccc(N3CCCC3)cc2)cs1`, the IC50 on eIF4E/eIF4G interaction (Table 1 of b280) is more than 600 µM. Moreover, in the experiment on A549 lung cancer cells (setting [1]), the GI50 was more than 20 µM.
Regarding `O=C(O)/C(Cc1ccccc1)=N/Nc1nc(-c2ccc3c(c2)OCCCO3)cs1`, the IC50 at eIF4E/eIF4G interaction (Table 1 of b280) came to 400 µM.
For `O=C(O)/C(Cc1ccccc1)=N/Nc1nc(-c2ccc(N3CCOCC3)cc2)cs1`, on eIF4E/eIF4G interaction (Table 1 of b280), the IC50 was more than 125 µM.
Same read-out and setting: the result for `O=C(O)/C(=C\c1ccccc1)NCc1nc(-c2ccccc2)cs1` reads more than 600 µM.
With `O=C(O)C(Cc1ccccc1[N+](=O)[O-])=NNc1nc(-c2ccc(/N=N/c3ccccc3)cc2)cs1` (mixture of isomers), at eIF4E/eIF4G interaction (Table 1 of b280), the IC50 is 150 µM. Also, in the experiment on A549 lung cancer cells (setting [1]), the concentration for 50% growth inhibition (GI50) came out at 4 µM.
With `O=C(O)C(Cc1ccccc1)=NNc1nc(-c2ccc3c(c2)OCCO3)cs1` (mixture of isomers), at eIF4E/eIF4G interaction (Table 1 of b280), the IC50 is 170 µM.
Consider `O=C(O)C(Cc1ccccc1)=NNc1nc(-c2ccc(C3CCCCC3)cc2)cs1` (mixture of isomers), for which the IC50 on eIF4E/eIF4G interaction (Table 1 of b280) came to 100 µM.
With `O=C(O)/C(Cc1ccccc1[N+](=O)[O-])=N/Nc1nc(-c2ccc(Cl)c(Cl)c2)cs1` [E-1, 2-{[4-(3,4-Dichloro-phenyl)-thiazol-2-yl]-hydrazono}-3-(2-nitro-phenyl)-propionic acid], the GI50 is 3 µM in the experiment with A549 lung cancer cells (Table 1) and 3 µM with A549 lung cancer cells (Table 1, listed as E-4a).
On to `O=C(O)/C(Cc1ccccc1[N+](=O)[O-])=N/Nc1nc(-c2ccccc2)cs1` [E-2], for which the 50% growth inhibitory concentration (GI50) with A549 lung cancer cells (Table 1) is 7 µM; with A549 lung cancer cells (Table 1, listed as E-4r), 7 µM.
In the case of `O=C(O)/C(Cc1ccccc1)=N/Nc1nc(-c2ccc(Cl)c(Cl)c2)cs1` [E-3, 2-{[4-(3,4-Dichloro-phenyl)thiazol-2-yl]-hydrazono}-3-phenyl-propionic acid], the IC50 at eIF4E/eIF4G interaction (Table 1 of b280) and at eIF4E/eIF4G interaction (Table 1 of b347) was 355 µM each time. The GI50 in the experiment with A549 lung cancer cells (Table 1) was determined as 6.5 µM; in the experiment on A549 lung cancer cells (Table 1, listed as E-4s) it was 6.5 µM.
Consider `O=C(O)/C(Cc1ccccc1)=N/Nc1nc(-c2ccccc2)cs1` [E-4, 3-Phenyl-2-[(4-phenyl-thiazol-2-yl)-hydrazono]-propionic acid], for which the IC50 on eIF4E/eIF4G interaction (Table 1 of b280) and on eIF4E/eIF4G interaction (Table 1 of b347) was more than 600 µM each time. Further, the GI50 with A549 lung cancer cells (Table 1) is 14 µM and 17 µM; in the experiment with A549 lung cancer cells (Table 1, listed as E-4c), 16 µM.
For the compound `O=C(O)/C(=N/Nc1nc(-c2ccccc2)cs1)c1ccccc1` [E-6, Phenyl-[(4-phenyl-thiazol-2-yl)-hydrazono]-acetic acid], the 50% growth inhibitory concentration (GI50) in the experiment with A549 lung cancer cells (Table 1) is 10 µM; in the experiment on A549 lung cancer cells (Table 1, listed as E-4h), 10 µM.
For the compound `Cc1sc(N/N=C(\Cc2ccccc2)C(=O)O)nc1-c1ccccc1` [E-9, 2-[(5-Methyl-4-phenyl-thiazol-2-yl)-hydrazono]-3-phenyl-propionic acid], the IC50 on eIF4E/eIF4G interaction (Table 1 of b280) was 350 µM; on eIF4E/eIF4G interaction (Table 1 of b347) it was more than 300 µM. Besides, the GI50 in the experiment with A549 lung cancer cells (Table 1) was found to be 6 µM; in the experiment on A549 lung cancer cells (Table 1, listed as E-4n), 6 µM.
With `O=C(O)/C(Cc1ccccc1)=N/Nc1nc(-c2ccccc2)c(-c2ccccc2)s1` [E-10, 2-[(4,5-Diphenyl-thiazol-2-yl)-hydrazono]-3-phenyl-propionic acid], the IC50 on eIF4E/eIF4G interaction (Table 1 of b280) was 90 µM; on eIF4E/eIF4G interaction (Table 1 of b347) it was 100 µM and 88 µM. Moreover, the GI50 in the experiment on A549 lung cancer cells (Table 1) was found to be 1.5 µM; in the experiment on A549 lung cancer cells (Table 1, listed as E-4o) it was 1.5 µM.
For `O=C(O)/C(Cc1ccccc1)=N/Nc1nc2ccccc2s1` [E-11, 2-(Benzothiazol-2-yl-hydrazono)-3-phenyl-propionic acid], the GI50 with A549 lung cancer cells (Table 1) turned out to be 4 µM; in the experiment with A549 lung cancer cells (Table 1, listed as E-4p), 4 µM.
With `COC(=O)/C(Cc1ccccc1)=N/Nc1nc(-c2ccccc2)cs1` [E-13, 3-Phenyl-2-[(4-phenyl-thiazol-2-yl)-hydrazono]-propionic acid methyl ester], the concentration for 50% growth inhibition (GI50) with A549 lung cancer cells (Table 1) stood at 7 µM; in the experiment on A549 lung cancer cells (Table 1, listed as E-4f), 7 µM.
As for `O=C(O)C(Cc1ccccc1)=NNc1nnc(-c2ccccc2)s1` [E-16, 3-Phenyl-2-[(5-phenyl-[1,3,4]thiadiazol-2-yl)-hydrazono]-propionic acid], the IC50 on eIF4E/eIF4G interaction (Table 1 of b347) was more than 600 µM. Besides, halving of growth with A549 lung cancer cells (setting [2]) (GI50) required 9 µM.
On to `O=C(O)/C(Cc1ccccc1)=N/Nc1ccc(-c2ccccc2)nn1` [E-17, 3-Phenyl-2-[(6-phenyl-pyridazin-3-yl)-hydrazono]-propionic acid], for which, on eIF4E/eIF4G interaction (Table 1 of b347), the IC50 was more than 600 µM. Growth with A549 lung cancer cells (setting [2]) was halved (GI50) at 7.5 µM.
Consider `NC(=O)/C(Cc1ccccc1)=N/Nc1nc(-c2ccccc2)cs1` [E-21, 3-Phenyl-2-[(4-phenyl-thiazol-2-yl)-hydrazono]-propionamide], for which, on eIF4E/eIF4G interaction (Table 1 of b347), the IC50 was more than 600 µM.
As for `O=C(O)/C(Cc1ccccc1[N+](=O)[O-])=N/Nc1nc(-c2ccc(Cl)c(Cl)c2)cs1` [Z-1, 2-{[4-(3,4-Dichloro-phenyl)-thiazol-2-yl]-hydrazono}-3-(2-nitro-phenyl)-propionic acid], the GI50 in the experiment with A549 lung cancer cells (setting [1]) was found to be 6 µM; with A549 lung cancer cells (setting [2]), 5 ± 1 µM.
In the case of `O=C(O)/C(Cc1ccccc1[N+](=O)[O-])=N/Nc1nc(-c2ccccc2)cs1` [Z-2], the IC50 at eIF4E/eIF4G interaction (Table 1 of b280) and on eIF4E/eIF4G interaction (Table 1 of b347) was more than 600 µM throughout. Further, the concentration for 50% growth inhibition (GI50) in the experiment on A549 lung cancer cells (Table 1) was more than 20 µM; with A549 lung cancer cells (Table 1, listed as Z-4r) it was more than 20 µM.
Take `O=C(O)/C(Cc1ccccc1)=N/Nc1nc(-c2ccc(Cl)c(Cl)c2)cs1` [Z-3, 2-{[4-(3,4-Dichloro-phenyl)thiazol-2-yl]-hydrazono}-3-phenyl-propionic acid]: the IC50 at eIF4E/eIF4G interaction (Table 1 of b280) stood at 300 µM. Besides, the GI50 in the experiment with A549 lung cancer cells (Table 1) is 14 µM; with A549 lung cancer cells (Table 1, listed as Z-4s), 14 µM.
For the compound `O=C(O)/C(Cc1ccccc1)=N/Nc1nc(-c2ccccc2)cs1` [Z-4, 3-Phenyl-2-[(4-phenyl-thiazol-2-yl)-hydrazono]-propionic acid], the IC50 at eIF4E/eIF4G interaction (Table 1 of b280) and on eIF4E/eIF4G interaction (Table 1 of b347) was 240 µM in each case. Also, the GI50 in the experiment with A549 lung cancer cells (setting [1]) was 17 µM; in the experiment with A549 lung cancer cells (setting [2]), more than 20 µM.
In the case of `C(/Cc1ccccc1)=N/Nc1nc(-c2ccccc2)cs1` [Z-5, N-Phenethylidene-N′-(4-phenyl-thiazol-2-yl)-hydrazine], the IC50 at eIF4E/eIF4G interaction (Table 1 of b280) and on eIF4E/eIF4G interaction (Table 1 of b347) was more than 600 µM each time. The concentration for 50% growth inhibition (GI50) in the experiment on A549 lung cancer cells (setting [1]) and with A549 lung cancer cells (setting [2]) was 7 µM in each case.
As to `O=C(O)/C(=N/Nc1nc(-c2ccccc2)cs1)c1ccccc1` [Z-6, Phenyl-[(4-phenyl-thiazol-2-yl)-hydrazono]-acetic acid], the IC50 on eIF4E/eIF4G interaction (Table 1 of b280) and at eIF4E/eIF4G interaction (Table 1 of b347) was more than 600 µM throughout. For the same compound, the GI50 in the experiment with A549 lung cancer cells (setting [1]) and in the experiment on A549 lung cancer cells (setting [2]) was 13 µM throughout.
In the case of `C/C(=N\Nc1nc(-c2ccccc2)cs1)C(=O)O` [Z-7, 2-[(4-Phenyl-thiazol-2-yl)-hydrazono]-propionic acid], the IC50 on eIF4E/eIF4G interaction (Table 1 of b280) and at eIF4E/eIF4G interaction (Table 1 of b347) was more than 600 µM throughout. Besides, the GI50 with A549 lung cancer cells (setting [1]) and in the experiment on A549 lung cancer cells (setting [2]) was more than 20 µM each time.
With `Cc1sc(N/N=C(\Cc2ccccc2)C(=O)O)nc1-c1ccccc1` [Z-9, 2-[(5-Methyl-4-phenyl-thiazol-2-yl)-hydrazono]-3-phenyl-propionic acid], the IC50 on eIF4E/eIF4G interaction (Table 1 of b280) and at eIF4E/eIF4G interaction (Table 1 of b347) was 240 µM throughout. The 50% growth inhibitory concentration (GI50) in the experiment with A549 lung cancer cells (setting [1]) and in the experiment with A549 lung cancer cells (setting [2]) was 4 µM each time.
As for `O=C(NC(Cc1ccccc1)C(=O)O)c1nc(-c2ccccc2)cs1` (stereo not shown) [compound 18, 3-Phenyl-2-[(4-phenyl-thiazole-2-carbonyl)-amino]-propionic acid], the IC50 at eIF4E/eIF4G interaction (Table 1 of b347) is more than 600 µM.
Take `O=C(O)C(Cc1ccccc1)C(=O)Nc1nc(-c2ccccc2)cs1` (stereo not shown) [compound 19, 2-Benzyl-N-(4-phenyl-thiazol-2-yl)-malonamic acid]: on eIF4E/eIF4G interaction (Table 1 of b347), the IC50 was more than 600 µM.
Turning to `O=C(O)C(Cc1ccccc1)NCc1nc(-c2ccccc2)cs1` (stereo not shown) [compound 20, 3-Phenyl-2-[(4-phenyl-thiazol-2-ylmethyl)-amino]-propionic acid], the “IC50 (μM) (4E/4G FP)” value on eIF4E/eIF4G interaction (Table 1 of b347) is “insoluble”.
On to `O=C(O)C(CNc1nc(-c2ccccc2)cs1)Cc1ccccc1` (stereo not shown) [compound 22, 2-Benzyl-3-(4-phenyl-thiazol-2-ylamino)-propionic acid], for which, on eIF4E/eIF4G interaction (Table 1 of b347), the IC50 is more than 600 µM.
With `O=C(NC(Cc1ccccc1)C(=O)O)c1nc(-c2ccccc2)cs1` (stereo not shown) [drawing 69], on eIF4E/eIF4G interaction (Table 1 of b280), the IC50 was more than 600 µM.
Still for that read-out and setting: as for `O=C(O)C(Cc1ccccc1)C(=O)Nc1nc(-c2ccccc2)cs1` (stereo not shown) [drawing 70], the figure is more than 600 µM.
Consider `O=C(O)C(Cc1ccccc1)NCc1nc(-c2ccccc2)cs1` (stereo not shown) [drawing 71], for which, on eIF4E/eIF4G interaction (Table 1 of b280), the “IC50 (μM) (4E/4G FP)” value is on record as “insoluble”.
